The record followed here is patent publication US4368329A, “Process of preparing thiopyrylium sensitizing dyes” (Minnesota Mining and Manufacturing Company, priority 1981, dated 1983).

Molecules are shown by their SMILES.

The first data set in a line: Absorption maximum (λmax) and log ε of the dye in solution. The class given is physicochemical. The settings on record: CHCl3.
Take `CN(C)c1ccc(-c2cc(-c3ccccc3)cc(-c3ccccc3)[s+]2)cc1` [Example 6]: the “log ε max.” value came to 4.86 and the λ max. came out at 622.
The compound `Cc1cc(N(C)C)ccc1-c1cc(-c2ccccc2)cc(-c2ccccc2)[s+]1` [Example 16] had a λ max. of 616.
`c1ccc(-c2cc(-c3ccccc3)[s+]c(-c3ccc(NC4CCCCC4)cc3)c2)cc1` [Example 19]: the “log ε max.” value was found to be 4.31 and the λ max. stood at 634.
Consider `Nc1ccc(-c2cc(-c3ccccc3)cc(-c3ccccc3)[s+]2)cc1N` [Example 29], for which the λ max. turned out to be 654.
Regarding `CCN(Cc1ccccc1)c1ccc(-c2cc(-c3ccccc3)cc(-c3ccccc3)[s+]2)cc1` [Example 8], the “log ε max.” value came out at 4.53 and the λ max. was 620.
On to `COc1cc(N)ccc1-c1cc(-c2ccccc2)cc(-c2ccccc2)[s+]1` [Example 23], for which the “log ε max.” value is 4.27 and the λ max. is recorded as 586.
For `CCN(Cc1ccccc1)c1ccc(-c2cc(-c3ccccc3)cc(-c3ccccc3)[s+]2)cc1` [Example 10] the same measures were 5.05 and 620.
`c1ccc(-c2cc(-c3ccccc3)[s+]c(-c3cc4c5c(c3)CCCN5CCC4)c2)cc1` [Example 31, 2,4-diphenyl-6(julolidin-6-yl) thiopyrylium trifluoromethane sulfonate] returned a λ max. of 675 nm.
On to `Cc1cc(-c2cc(-c3ccccc3)cc(-c3ccccc3)[s+]2)cc(C)c1N` [Example 17], for which the “log ε max.” value was 4.32 and the λ max. is recorded as 600.
Taken in the same sequence, the figures for `OCCN(CCO)c1ccc(-c2cc(-c3ccccc3)cc(-c3ccccc3)[s+]2)cc1` [Example 26] were 4.31 and 638.
Taken in the same sequence, the figures for `CCc1cc(-c2cc(-c3ccccc3)cc(-c3ccccc3)[s+]2)cc(CC)c1N` [Example 18] were 4.32 and 602.
Taken in the same sequence, the figures for `c1ccc(Nc2ccc(-c3cc(-c4ccccc4)cc(-c4ccccc4)[s+]3)cc2)cc1` [Example 20] were 4.39 and 650.
As to `COc1cc(-c2cc(-c3ccccc3)cc(-c3ccccc3)[s+]2)ccc1N` [Example 21], the “log ε max.” value came to 4.32 and the λ max. is given as 612.
Taken in the same sequence, the figures for `Nc1ccc(-c2cc(-c3ccccc3)cc(-c3ccccc3)[s+]2)c(Cl)c1` [Example 27] were 4.00 and 564.
Taken in the same sequence, the figures for `Nc1ccc(-c2cc(-c3ccccc3)cc(-c3ccccc3)[s+]2)cc1` [Example 2] were 4.34 and 592.
Turning to `CN(C)c1ccc(-c2cc(-c3ccccc3)cc(-c3ccccc3)[s+]2)cc1` [Example 5], the “log ε max.” value was found to be 4.77 and the λ max. turned out to be 624.
`Cc1cc(N)ccc1-c1cc(-c2ccccc2)cc(-c2ccccc2)[s+]1` [Example 14]: the “log ε max.” value amounted to 4.30 and the λ max. is 564.
Regarding `CNc1ccc(-c2cc(-c3ccccc3)cc(-c3ccccc3)[s+]2)cc1` [Example 4], the “log ε max.” value came out at 4.55 and the λ max. was found to be 633.
Take `Cc1cc(-c2cc(-c3ccccc3)cc(-c3ccccc3)[s+]2)ccc1N` [Example 12]: the “log ε max.” value was found to be 4.32 and the λ max. is 600.
`CCN(CC)c1ccc(-c2cc(-c3ccccc3)cc(-c3ccccc3)[s+]2)cc1` [Example 7]: the “log ε max.” value is 4.50 and the λ max. turned out to be 638.
For `CCN(Cc1ccccc1)c1ccc(-c2cc(-c3ccccc3)cc(-c3ccccc3)[s+]2)cc1` [Example 9] the same measures were 5.18 and 615.
For `COc1cc(-c2cc(-c3ccccc3)cc(-c3ccccc3)[s+]2)c(OC)cc1N` [Example 25] the same measures were 4.36 and 602.
For `c1ccc(CN(Cc2ccccc2)c2ccc(-c3cc(-c4ccccc4)cc(-c4ccccc4)[s+]3)cc2)cc1` [Example 11] the same measures were 4.50 and 602.

The same data set, now with this note: EtOH.
Regarding `Cc1cc(N)ccc1-c1cc(-c2ccccc2)cc(-c2ccccc2)[s+]1` [Example 15], the “log ε max.” value is recorded as 4.16 and the λ max. is recorded as 556.
Taken in the same sequence, the figures for `Cc1cc(-c2cc(-c3ccccc3)cc(-c3ccccc3)[s+]2)ccc1N` [Example 13] were 4.32 and 596.
Take `COc1cc(N)ccc1-c1cc(-c2ccccc2)cc(-c2ccccc2)[s+]1` [Example 24]: the “log ε max.” value is reported as 4.16 and the λ max. worked out at 566.
Take `COc1cc(-c2cc(-c3ccccc3)cc(-c3ccccc3)[s+]2)ccc1N` [Example 22]: the “log ε max.” value is 4.19 and the λ max. was found to be 588.
Taken in the same sequence, the figures for `Nc1ccc(-c2cc(-c3ccccc3)cc(-c3ccccc3)[s+]2)c(Cl)c1` [Example 28] were 4.06 and 588.
Taken in the same sequence, the figures for `Nc1ccc(-c2cc(-c3ccccc3)cc(-c3ccccc3)[s+]2)cc1` [Example 1, 2-(4-aminophenyl)-4,6-diphenylthiopyrylium perchlorate] were 4.21 and 584.
In the case of `CNc1ccc(-c2cc(-c3ccccc3)cc(-c3ccccc3)[s+]2)cc1` [Example 3], the “log ε max.” value was 4.38 and the λ max. was 596.

The data set is the same for the next values; noted with them: Example 1, first band (584); solvent not given.
`Nc1ccc(-c2cc(-c3ccccc3)cc(-c3ccccc3)[s+]2)cc1` [Example 1, 2-(4-aminophenyl)-4,6-diphenylthiopyrylium perchlorate] registered a logε of 4.21.

The same data set, now with this note: Example 1, first band; solvent not given.
In the case of `Nc1ccc(-c2cc(-c3ccccc3)cc(-c3ccccc3)[s+]2)cc1` [Example 1, 2-(4-aminophenyl)-4,6-diphenylthiopyrylium perchlorate], the λ max. was 584.

Staying with this data set, now noted: Example 1, second band (367); solvent not given.
`Nc1ccc(-c2cc(-c3ccccc3)cc(-c3ccccc3)[s+]2)cc1` [Example 1, 2-(4-aminophenyl)-4,6-diphenylthiopyrylium perchlorate] showed a logε of 4.27.

The data set is the same for the next values; noted with them: Example 1, second band; solvent not given.
Turning to `Nc1ccc(-c2cc(-c3ccccc3)cc(-c3ccccc3)[s+]2)cc1` [Example 1, 2-(4-aminophenyl)-4,6-diphenylthiopyrylium perchlorate], the λ max. was 367.
